# Data taken from patent US20220016111A1, “Methods of Treating Inflammation” (The Walter and Eliza Hall Institute of Medical Research, priority 2018, published 2022).
# Entries after “also recorded” stand apart in the source; their conditions may differ.
# Experiments:
# [1] = in vivo, cited from earlier work
# [2] = in-vivo; cited from earlier work
# [3] = tested on: 30 other histone or DNA methyltransferases; details: cited from earlier work
# EZH1 [4] = biological target: T1, EZH1 (Homo sapiens, UniProt Q92800); details: cited from earlier work
# [5] = tested on: diffused large B-cell lymphomas cells carrying the Y641 mutations; details: cited from earlier work
# H3K27 methylation = details: cited from earlier work
# [6] = tested on: wild type and mutant forms of EZH2; details: cited from earlier work
# [7] = tested on: 20 other methyltransferases; details: cited from earlier work
# EZH1 [8] = biological target: T1, EZH1; details: cited from earlier work; remark: listed apart in the source
# [9] = tested on: OVA-induced allergic inflammation; type: in vivo, C57BL/6 mice
# Method: (§1) Mean and SEM is shown. […] Scale bar represents 100 μm. e) Quantification of histological analysis showing the frequency of PAS^+ cells and the Inflammation Score. Mean and SEM are shown for n=8 per group. […] Mean and SEM are shown for n=5 (Vehicle), n=4 (each GSK dose).
# Mean and SEM as well as individual data points are shown. n=4 each group. Data was statistically tested by 1-way ANOVA with Dunnet's post-hoc test.
# (§2) Mice were immunized with an intraperitoneal injection of 200 μL Alum/OVA containing 20 μg low-endotoxin ovalbumin (Worthington) and 2.25 mg aluminium hydroxide (Sigma) in sterile PBS on day 0 and day 7. Mice were then rested for a minimum of 2 weeks and then challenged daily for 4 days with nebulized 2% (w/v) ovalbumin (Sigma) in PBS for 15 min. The day after the final challenge (or at a time-point described in the text), mice were sacrificed and bronchoalveolar lavage (250 μL×2 with sterile PBS) was performed from which cellular infiltrate was analysed by flow cytometry and acellular BAL fluid was analysed by Bio-Plex Pro™ cytokine assay (Biorad). Lung tissue was then fixed by inserting 1 mL of 10% formalin via the trachea into the lungs leaving to set in situ for at least 30 min. The mid-section of the left lobe was then excised and placed in liquid formalin for a further 24 h prior to paraffin embedding, sectioning and staining with Periodic acid-Schiff (PAS) and Haematoxylin and Eosin (H&E) stains. Stained slides were imaged using an Aperio Digital Pathology Slide Scanner and quantitated by counting PAS positive epithelial cells and scoring leukocyte infiltration in H&E stained sections according to the scoring chart (FIG. 16). Scores from at least five 20× magnification fields of each stain were averaged for each mouse.
# Lung function was assessed by the forced oscillation technique using a FlexiVent system with FX1 module (Scireq, Montreal, Canada). Mice were anaesthetized with ketamine (150 mg/kg) and xylazine (15 mg/kg) then cannulated by tracheostomy with ligation. Baseline respiratory mechanics were recorded, followed by aerosolized saline then increasing doses of methacholine (MCh) (0.1-30 mg/mL). Respiratory impedance (Zrs) was measured and partitioned into airway and parenchymal components through fitting to the Constant Phase Model from which Newtonian resistance (Rn; equivalent to airway resistance) was calculated.
# Total IgE and OVA-specific IgE were measured by enzyme-linked immunosorbent assay (ELISA). Briefly, 96 well plates were coated with either Rat anti-mouse IgE (to measure total IgE; Southern Biotech clone #23G2, cat #1130-01) or OVA protein (for OVA-specific IgE) in PBS overnight. Samples were diluted (total IgE 1:50-1:200 and OVA-specific IgE 1:50-1:100 based on pilot assays), and incubated in duplicate, prior to incubation with GAM Fc-specific polyclonal anti-IgE-HRP and colorimetric detection using TMB substrate (Thermo Scientific #34028), measuring absorbance at 450 nm. Absorbance values were converted to total IgE levels by reference to a mouse IgE anti-DNP (clone SPE-7) standard curve (0.1 ng/mL-1 μg/mL) which was included on the same plate. OVA-specific IgE absorbance was expressed relative to a reference OVA-immunized WT mouse which was selected prior to measurement. All ELISAs were performed blinded to treatment and genotype.
# [10] = tested on: activated C57BL/6 mouse CD4+ T cells; test: Survival/expansion of activated CD4+ T cells in vitro; type: cell-based; details: anti-CD3 and anti-CD28 activation, three days
# Excerpt: as §1
# Nave CD4^+ T cells were isolated from a single-cell suspension from mouse spleen by MACS isolation kit (Miltenyi Biotech). Cells were labelled with CellTrace™ Violet (CTV, Thermo Fisher) then activated in 96 well plates pre-coated with anti-CD3 (10 μg/mL) and anti-CD28 (5 μg/mL) in RPMI-1640 medium supplemented with 10% heat-inactivated fetal bovine serum, 2 mM GlutaMAX™ and 0.05 mM β-mercaptoethanol.
# [11] = tested on: established allergic inflammation; test: Established OVA inflammation, three doses of GSK126; type: in vivo, C57BL/6 mice
# Method: Data shown representative of n=5 OVA/Vehicle (Veh) and OVA/GSK groups, n=2 unchallenged controls (Con) shown for reference purposes. c) Quantification of b. Mean and SEM shown. Group sizes as in b. […] Scale bar represents 100 μm. f) Quantification of PAS^+ cells and Inflammation Score. Mean and SEM shown. Group sizes as in b. Statistical analysis by 1-way ANOVA with Holm-Sidak post-hoc.
# as §2
# The therapeutic regime was then extended to three doses (day 5, 8 and 10) after establishing inflammation by OVA challenge on days 1-4, and airway inflammation assessed on day 11 (FIG. 15a).
# tumours = details: mouse models; cited from earlier work
# [12] = tested on: established allergic inflammation; test: Established OVA inflammation, single dose of GSK126; type: in vivo, C57BL/6 mice; details: single dose 150 mg/kg oral gavage on day 5, assessed 3 days later
# Method: CD4+ and CD8+ T cells were first gated by CD11b−GR1−TCRβ+. Neutrophils were gated by CD11bHiGR1Hi. Eosinophils were gated by CD11b+CD11c−SiglecF+. Mean and SEM are shown. n=2 Alum-sensitized vehicle treated controls shown for comparative purposes. OVA-sensitized groups were statistically compared by Student's t test.
# as §2, with “The mid-section of the left lobe was then excised and placed in liquid formalin for a further 24 h prior to paraffin embedding, sectioning and staining with Periodic acid-Schiff (PAS) and Haematoxylin and Eosin (H&E) stains.” left out, “Scores from at least five 20× magnification fields of each stain were averaged for each mouse.” left out
# MLL-rearranged leukemia = details: in-vitro and in vivo; cited from earlier work
# [13] = 75 mg/kg, compared with vehicle
# [14] = 150 mg/kg oral gavage, each day of OVA challenge
# [15] = after OVA challenge and GSK126 administration
# [16] = 150 mg/kg on day 5, 8 and 10, assessed day 11
# T1 sequence (Q92800 whole entry, species assumed, the tested form may be a part): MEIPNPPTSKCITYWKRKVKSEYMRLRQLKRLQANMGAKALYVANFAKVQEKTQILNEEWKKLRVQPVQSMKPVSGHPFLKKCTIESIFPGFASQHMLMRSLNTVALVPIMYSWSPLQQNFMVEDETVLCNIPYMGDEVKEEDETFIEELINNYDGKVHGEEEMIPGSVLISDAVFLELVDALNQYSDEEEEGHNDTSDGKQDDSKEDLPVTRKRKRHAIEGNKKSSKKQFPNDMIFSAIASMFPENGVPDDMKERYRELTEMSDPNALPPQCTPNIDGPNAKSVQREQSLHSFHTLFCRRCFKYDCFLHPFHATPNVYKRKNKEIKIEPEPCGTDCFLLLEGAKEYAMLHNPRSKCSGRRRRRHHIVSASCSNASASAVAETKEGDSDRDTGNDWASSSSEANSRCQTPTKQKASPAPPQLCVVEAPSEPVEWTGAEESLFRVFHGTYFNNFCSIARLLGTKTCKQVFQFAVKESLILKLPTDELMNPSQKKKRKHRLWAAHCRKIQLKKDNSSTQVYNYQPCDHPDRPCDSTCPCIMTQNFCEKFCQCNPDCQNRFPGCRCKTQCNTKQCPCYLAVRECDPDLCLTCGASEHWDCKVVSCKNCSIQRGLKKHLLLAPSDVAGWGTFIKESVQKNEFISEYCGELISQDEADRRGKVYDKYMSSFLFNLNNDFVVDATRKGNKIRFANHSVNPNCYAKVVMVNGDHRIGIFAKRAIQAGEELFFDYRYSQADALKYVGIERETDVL
# T1 sequence (O75530 whole entry partner, species assumed, the tested form may be a part): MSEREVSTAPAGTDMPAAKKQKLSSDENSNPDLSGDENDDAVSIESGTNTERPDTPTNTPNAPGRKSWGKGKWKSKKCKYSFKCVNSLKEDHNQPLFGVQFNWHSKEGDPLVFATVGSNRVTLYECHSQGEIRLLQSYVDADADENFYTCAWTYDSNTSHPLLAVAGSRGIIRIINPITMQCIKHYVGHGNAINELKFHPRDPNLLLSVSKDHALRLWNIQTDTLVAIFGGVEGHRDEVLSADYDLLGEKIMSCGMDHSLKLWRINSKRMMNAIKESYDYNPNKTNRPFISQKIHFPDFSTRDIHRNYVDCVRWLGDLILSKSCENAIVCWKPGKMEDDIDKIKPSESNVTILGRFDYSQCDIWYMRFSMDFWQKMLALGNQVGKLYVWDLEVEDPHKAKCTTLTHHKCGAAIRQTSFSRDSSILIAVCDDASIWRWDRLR
# T1 sequence (Q15022 whole entry partner, species assumed, the tested form may be a part): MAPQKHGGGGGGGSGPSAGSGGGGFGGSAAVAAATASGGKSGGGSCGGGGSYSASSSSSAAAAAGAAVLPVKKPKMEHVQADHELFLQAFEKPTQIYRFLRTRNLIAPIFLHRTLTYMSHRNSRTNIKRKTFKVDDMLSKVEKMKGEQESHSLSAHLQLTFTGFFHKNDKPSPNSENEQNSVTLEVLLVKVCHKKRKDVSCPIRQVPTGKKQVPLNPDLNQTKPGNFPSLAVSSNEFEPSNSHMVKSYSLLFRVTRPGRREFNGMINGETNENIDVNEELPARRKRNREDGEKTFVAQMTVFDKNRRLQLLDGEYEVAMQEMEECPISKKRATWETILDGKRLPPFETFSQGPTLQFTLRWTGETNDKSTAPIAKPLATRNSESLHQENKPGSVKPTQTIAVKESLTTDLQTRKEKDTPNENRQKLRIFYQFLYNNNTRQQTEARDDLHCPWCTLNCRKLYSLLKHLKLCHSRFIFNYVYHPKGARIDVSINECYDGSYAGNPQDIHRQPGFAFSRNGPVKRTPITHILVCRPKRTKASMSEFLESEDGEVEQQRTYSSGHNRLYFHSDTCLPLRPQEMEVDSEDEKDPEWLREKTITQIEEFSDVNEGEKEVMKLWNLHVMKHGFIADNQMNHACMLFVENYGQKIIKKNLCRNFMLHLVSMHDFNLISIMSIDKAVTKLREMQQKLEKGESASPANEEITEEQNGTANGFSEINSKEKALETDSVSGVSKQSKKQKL
# T1 sequence (Q09028 whole entry partner, species assumed, the tested form may be a part): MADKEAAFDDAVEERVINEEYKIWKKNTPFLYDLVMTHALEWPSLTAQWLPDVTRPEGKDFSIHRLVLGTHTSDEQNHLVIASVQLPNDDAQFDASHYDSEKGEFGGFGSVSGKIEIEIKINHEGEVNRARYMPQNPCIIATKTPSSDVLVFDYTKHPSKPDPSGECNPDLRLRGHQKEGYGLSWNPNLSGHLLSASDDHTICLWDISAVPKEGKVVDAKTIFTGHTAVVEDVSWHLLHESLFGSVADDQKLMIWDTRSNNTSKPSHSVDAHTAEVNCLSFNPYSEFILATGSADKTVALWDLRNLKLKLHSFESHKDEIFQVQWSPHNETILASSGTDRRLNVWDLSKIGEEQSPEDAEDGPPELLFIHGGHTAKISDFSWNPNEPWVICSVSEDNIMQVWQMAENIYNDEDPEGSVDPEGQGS
structure (smiles),measurement,setting,value
CCS(=O)(=O)N1CCC([C@@H](C)n2c(C)c(C(=O)NCc3c(OC)cc(C)[nH]c3=O)c3ccccc32)CC1 [CPI-169],oral bioavailability,[1],limited oral bioavailability
same,antitumor activity and PD target engagement,[2],demonstrated antitumor activity and PD target engagement
COc1cc(C)[nH]c(=O)c1CNC(=O)c1c(C)n([C@H](C)C2CCN(CC(F)(F)F)CC2)c2ccccc12 [CPI-1205],oral bioavailability,[1],orally bioavailable
same,selectivity against 30 other histone or DNA methyltransferases,[3],selectivity
same,selectivity for EZH2 over EZH1,EZH1 [4],modest selectivity
CCC(CC)n1ccc2c(C(=O)NCc3c(C)cc(C)[nH]c3=O)cc(C#N)cc21 [EI1],effect on lymphoma cells,[5],"decreased proliferation, cell cycle arrest, and apoptosis"
same,H3K27 methylation and PRC2 target genes in treated cells,H3K27 methylation,genome-wide loss of H3K27 methylation and activation of PRC2 target genes
Cc1cc(C)c(CNC(=O)c2cc(-c3ccc(CN4CCOCC4)cc3)cc3c2cnn3C2CCCC2)c(=O)[nH]1 [EPZ 005687],pharmacokinetic properties,[1],suboptimal
same,affinity and selectivity for EZH2,[6],high affinity and selectivity
CC[C@H](C)n1cc(C)c2c(C(=O)NCc3c(C)cc(C)[nH]c3=O)cc(-c3ccc(N4CCNCC4)nc3)cc21 [GSK126],increased potency compared to 20 other methyltransferases,[7],> 1000 fold
same,increased potency compared to EZH1,EZH1 [8],150 fold
same,BAL cells,[9]; [13],no effect
same,PAS staining,[9]; [13],no effect
same,lung tissue inflammation,[9]; [13],no effect
same,PAS+ mucous-producing epithelial cells,[9]; 150 mg/kg,similarly reduced
same,levels of inflammation in the lung tissue,[9]; 150 mg/kg,similarly reduced
same,BAL T cells,[9]; [14],dramatic reduction
same,BAL eosinophils,[9]; [14],dramatic reduction
same,BAL neutrophils,[9]; [14],dramatic reduction
same,total BAL leukocytes,[9]; [14],dramatic reduction
same,OVA-induced airway hyperresponsiveness,"[9]; 150 mg/kg, methacholine",complete protection
same,OVA-specific IgE in serum,[9]; [15],unchanged
same,total IgE in serum,[9]; [15],unchanged
same,systemic effects,"[9]; mouse, in vivo",did not observe any systemic effects
same,number of cells recovered in the culture compared to vehicle control,[10],dose-dependent effect
same,BAL B cells,[11]; [16],significantly reduced
same,BAL CD4+ T cells,[11]; [16],significantly reduced
same,BAL eosinophils,[11]; [16],significantly reduced
same,PAS+ mucous-producing cells,[11]; [16],reduced
same,airway inflammation,[11]; [16],reduced
same,total BAL cells,[11]; [16],significantly reduced
same,lung inflammation levels (all groups),[11]; 7 days after final OVA challenge,statistically indistinguishable
same,growth of tumours,tumours,suppress the growth of tumours
same,BAL granulocyte numbers,[12],did not alter
same,BAL CD4+ T cell numbers,[12]; 150 mg/kg,reduced; also recorded: selectively reduces
CCN(c1cc(-c2ccc(CN3CCOCC3)cc2)cc(C(=O)NCc2c(C)cc(C)[nH]c2=O)c1C)C1CCOCC1 [Tazemetostat],oral bioavailability,[1],orally bioavailable
CCCc1cc(C)[nH]c(=O)c1CNC(=O)c1cc(-c2ccc(N3CCN(C(C)C)CC3)nc2)cc2c1cnn2C(C)C [UNC 1999],growth of MLL-rearranged leukemia,MLL-rearranged leukemia,inhibit growth
